In patent US11666071B2, “Compound salt of N,N-dimethylglycine and an organic acid and composition and use thereof” (GUANGZHOU INSIGHTER BIOTECHNOLOGY CO., LTD., priority 2017, dated 2023):
Counter-ions that a name gives are not always drawn. Marks after values point to notes of the source that are not given here.

Experiments:
[1] = High-humidity stability test (hygroscopic weight gain); assay type: physicochemical; conditions: 25° C.; for hygroscopic weight gain, Day 5 (%) / hygroscopic weight gain, Day 10 (%): RH 95%±1%; for hygroscopicity / status of sample: RH 95%; for hygroscopic weight gain, Day 5 (%) / hygroscopicity / status of sample: day 5
[2] = tested on: Duroc×Landrace×Large White weaned pigs; assay: Zinc salt of N,N-dimethylglycine and fumaric acid in weaned-pig feed; assay type: in vivo; conditions: 15 days
Source text: The pigsty and utensils were disinfected before the experiment. The pigs were kept in pens in the same pigsty under the same breeding conditions during the experiment. […] The groups included a control group, a comparative example and experiment groups 1-6. The control group was provided with only the basic diets, the comparative example was provided with 2500 ppm of zinc oxide, and the experiment groups 1-6 were respectively provided with the basic diets together with the hybrid pellet feed additive product 7 provided by the present invention in different concentrations, as shown in Table 9. […] The experiment was carried out for 15 days. […] The experiment data were analyzed with SPSS18 software.

[3] = tested on: Duroc×Landrace×Large White weaned pigs; assay: Copper salt of N,N-dimethylglycine and fumaric acid on weaned pigs; assay type: in vivo, pig
Description: The […] utensils were disinfected before the experiment. The pigs were kept in pens in the same […] under the same breeding conditions during the experiment. […] The test was carried out for 15 days. […] The experiment data were analyzed with SPSS18 software.

Row | Compound | hygroscopic weight gain, Day 5 (%) [1] [%] | hygroscopic weight gain, Day 10 (%) [1] [%] | hygroscopicity / status of sample [1] | further results
1 | CN(C)CC(=O)[O-].O=C([O-])c1ccccc1.[Cu+2] [Sample 11] | 2.41 ± 0.07 | 2.81 ± 0.10 |  | 
2 | [O]=[Zn] [Zinc oxide, reference compound] |  |  |  | FCR ([2]; dose 2500 ppm): 1.808 ± 0.018
3 | Zinc salt of N,N-dimethylglycine and fumaric acid [Sample 13] | 2.26 ± 0.09 | 2.76 ± 0.23 |  | effect on the feed intake of weaned pigs ([2]; 55-520 ppm): no significant effect; dose at which reduction of feed conversion ratio is significant and equivalent to high-dose zinc oxide ([2]; weaned pigs): higher than 390 ppm; dose that significantly increases average daily weight gain to the level of 2500 ppm zinc oxide ([2]; weaned pigs): about 260 ppm
4 | CN(C)CC(=O)O.Cl [Sample 1, N,N-dimethylglycine hydrochloride, reference compound] | 79.86 ± 0.94 | 80.69 ± 0.59 | very high hygroscopicity | 
5 | Calcium N,N-dimethylglycinate [Sample 3, reference compound] | 38.40 ± 0.22 | 41.83 ± 0.35 | very high hygroscopicity | 
6 | Calcium salt of N,N-dimethylglycine and fumaric acid [Sample 8] | 2.95 ± 0.22 | 3.25 ± 0.12 |  | 
7 | O.O.O.O.O.O=S(=O)([O-])[O-].[Cu+2] [Copper sulfate pentahydrate, reference compound] |  |  |  | ADFI ([3]; dose 250 ppm, 15 days): 94.67 ± 1.33 kg; ADG ([3]; dose 250 ppm, 15 days): 46.38 ± 1.01 kg; FCR ([3]; dose 250 ppm, 15 days): 2.042 ± 0.021^b
8 | Calcium salt of N,N-dimethylglycine and tetradecanoic acid [Sample 9] | 2.11 ± 0.04 | 2.75 ± 0.32 |  | 
9 | CN(C)CC(=O)O [Sample 6, Calcium salt of N,N-dimethylglycine and sulfuric acid] | 61.72 ± 0.41 | 60.58 ± 0.21 | water-like status | 
10 | Calcium salt of N,N-dimethylglycine and p-methylbenzenesulfonic acid [Sample 10] | 2.84 ± 0.23 | 3.01 ± 0.11 |  | 
11 | Copper salt of N,N-dimethylglycine and fumaric acid [Sample 14] | 2.56 ± 0.11 | 2.81 ± 0.06 |  | effect on the average daily weight gain of weaned pigs ([3]; 30-100 ppm, 15 days): no significant effect; effect on the feed intake of weaned pigs ([3]; 30-100 ppm, 15 days): no significant effect; reduction of feed conversion ratio compared with the control group ([3]; dose 100 ppm): 8.61%; dose at which feed conversion ratio is significantly reduced ([3]; weaned pigs, 15 days): 30-100 ppm
12 | CN(C)CC(=O)[O-].[Na+] [Sample 2, Sodium N,N-dimethylglycinate, reference compound] | 49.09 ± 1.14 | 52.44 ± 0.48 | very high hygroscopicity | 
